Values of other authors as cited in article PMC11206245 (Pharmaceuticals, 2024).
Like-named read-outs stand apart in the source and are kept apart here.

How the values were obtained:
[1] = design: method as in PMID 22124669, PMID 20618337; conditions: humans; cited from earlier work
[2] = tested on: dogs; design: method as in PMID 15986212; conditions: cited from earlier work

Question: For CO[C@H]1/C=C\C=C(/C)C(=O)NC2=CC(=O)C(N)=C(C[C@@H](C)C[C@H](OC)[C@H](O)[C@@H](C)/C=C(\C)[C@@H]1OC(N)=O)C2=O [17-AG, 17-amino-geldanamycin], which half-life [1] is on record?
Answer: 6.2 to 7.6 h

Question: What does the source list for CO[C@H]1/C=C\C=C(/C)C(=O)NC2=CC(=O)C(NCCN(C)C)=C(C[C@@H](C)C[C@H](OC)[C@H](O)[C@@H](C)/C=C(\C)[C@@H]1OC(N)=O)C2=O [17-DMAG, 17-dimethylaminoethylamino-17-demetoxigeldanamycin]?
Answer: Toxicity outcome ([2]; 16 mg/m^2 orally): Toxicity was also observed; Toxicity outcome ([2]; daily intravenous dose of 8 mg/m^2): Toxicity was also observed; Toxicity outcome ([2]; intravenous daily doses of 16 mg/m^2): fatal
